Test results taken from US20230085307A1, “PYRIDAZINONE COMPOUND AND HERBICIDE” (NISSAN CHEMICAL CORPORATION, priority 2019, published 2023).

How the values were obtained:
Italian ryegrass [1] = test: Test Example 4: herbicidal effect by soil treatment (Table 19, symbol K); format: in vivo, Italian ryegrass (Lolium multiflorum); conditions: amount of applied herbicide 320 g/ha
Summary of the method: (§1)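 Soil-surface application: an emulsion agent diluted with water to the predetermined dose is sprayed uniformly over seeds lying under roughly 1.5 cm of sterilized diluvial soil. Boxes stay in a greenhouse at 25° C. to 30° C. Three weeks later, each species is graded on previously defined criteria.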

lambsquarters [2] = test: Test Example 5: herbicidal effect by foliage application, plastic box (Table 20, symbol O); format: in vivo, lambsquarters (Chenopodium album); conditions: foliage application, AAH 320 g/ha, evaluated three weeks after application
Summary of the method: (§2)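 Sow seeds spot-wise in sterilized diluvial soil; cover with ~1.5 cm soil. Grow 14 days in greenhouse, 25° C. to 30° C. Spray foliage with emulsion diluted to predetermined amount. Rate effect after 3 weeks.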

velvetleaf [3] = test: Test Example 5: herbicidal effect by foliage application, plastic box (Table 20, symbol M); format: in vivo, velvetleaf (Abutilon theophrasti); conditions: foliage application, AAH 320 g/ha, evaluated three weeks after application
Summary of the method: as §2

wild oat [4] = test: Test Example 4: herbicidal effect by soil treatment (Table 19, symbol I); format: in vivo, wild oat (Avena fatua); conditions: amount of applied herbicide 320 g/ha
Summary of the method: as §1

barnyard grass [5] = test: Test Example 3: herbicidal effect by foliage application, Wagner pot (Table 18, symbol H); format: in vivo, barnyard grass (Echinochloa crus-galli); conditions: amount of applied herbicide 320 g/ha
Summary of the method: (§3)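 Plants were sown in alluvial soil held under 0.1–0.5 cm standing water and grown 14 days in a greenhouse at 25–30 °C. An emulsifiable formulation, water-diluted to the set dose, was then sprayed onto the foliage, and effects were scored three weeks later using previously defined criteria.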

persian speedwell [6] = test: Test Example 4: herbicidal effect by soil treatment (Table 19, symbol R); format: in vivo, Persian speedwell (Veronica persica); conditions: amount of applied herbicide 320 g/ha
Summary of the method: as §1

green foxtail [7] = test: Test Example 4: herbicidal effect by soil treatment (Table 19, symbol G); format: in vivo, green foxtail (Setaria viridis); conditions: amount of applied herbicide 320 g/ha
Summary of the method: as §1

redroot pigweed [8] = test: Test Example 4: herbicidal effect by soil treatment (Table 19, symbol N); format: in vivo, redroot pigweed (Amaranthus retroflexus); conditions: amount of applied herbicide 320 g/ha
Summary of the method: as §1

southern crabgrass [9] = test: Test Example 4: herbicidal effect by soil treatment (Table 19, symbol F); format: in vivo, southern crabgrass (Digitaria ciliaris); conditions: amount of applied herbicide 320 g/ha
Summary of the method: as §1

blackgrass [10] = test: Test Example 4: herbicidal effect by soil treatment (Table 19, symbol J); format: in vivo, blackgrass (Alopecurus myosuroides); conditions: amount of applied herbicide 320 g/ha
Summary of the method: as §1

barnyard grass [11] = test: Test Example 4: herbicidal effect by soil treatment (Table 19, symbol H); format: in vivo, barnyard grass (Echinochloa crus-galli); conditions: amount of applied herbicide 320 g/ha
Summary of the method: as §1

chickweed [12] = test: Test Example 4: herbicidal effect by soil treatment (Table 19, symbol P); format: in vivo, common chickweed (Stellaria media); conditions: amount of applied herbicide 320 g/ha
Summary of the method: as §1

lambsquarters [13] = test: Test Example 4: herbicidal effect by soil treatment (Table 19, symbol O); format: in vivo, lambsquarters (Chenopodium album); conditions: amount of applied herbicide 320 g/ha
Summary of the method: as §1

late watergrass = test: Test Example 1: herbicidal activity, application before weed generation under submerged conditions (Table 16, symbol A); format: in vivo, late watergrass (Echinochloa oryzicola); conditions: amount of applied herbicide 320 g/ha
Summary of the method: (§4)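 Alluvial soil was flooded to 4 cm depth, weed seeds were sown mixed and 2.5-leaf rice seedlings were transplanted. On sowing day, the compound's emulsion, diluted in water to a set dose, was applied to the water surface. Plants grew at 25–30 °C and were scored 0–5 after three weeks.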

green foxtail [14] = test: Test Example 5: herbicidal effect by foliage application, plastic box (Table 20, symbol G); format: in vivo, green foxtail (Setaria viridis); conditions: foliage application, AAH 320 g/ha, evaluated three weeks after application
Summary of the method: as §2

Italian ryegrass [15] = test: Test Example 5: herbicidal effect by foliage application, plastic box (Table 20, symbol K); format: in vivo, Italian ryegrass (Lolium multiflorum); conditions: foliage application, AAH 320 g/ha, evaluated three weeks after application
Summary of the method: as §2

barnyard grass [16] = test: Test Example 5: herbicidal effect by foliage application, plastic box (Table 20, symbol H); format: in vivo, barnyard grass (Echinochloa crus-galli); conditions: foliage application, AAH 320 g/ha, evaluated three weeks after application
Summary of the method: as §2

wild oat [17] = test: Test Example 5: herbicidal effect by foliage application, plastic box (Table 20, symbol I); format: in vivo, wild oat (Avena fatua); conditions: foliage application, AAH 320 g/ha, evaluated three weeks after application
Summary of the method: as §2

windgrass [18] = test: Test Example 5: herbicidal effect by foliage application, plastic box (Table 20, symbol L); format: in vivo, windgrass (Apera spica-venti); conditions: foliage application, AAH 320 g/ha, evaluated three weeks after application
Summary of the method: as §2

oval-leafed pondweed = test: Test Example 1: herbicidal activity, application before weed generation under submerged conditions (Table 16, symbol C); format: in vivo, oval-leafed pondweed (Monochoria vaginalis); conditions: amount of applied herbicide 320 g/ha
Summary of the method: as §4

Chinese sprangletop = test: Test Example 3: herbicidal effect by foliage application, Wagner pot (Table 18, symbol D); format: in vivo, chinese sprangletop (Leptochloa chinensis); conditions: amount of applied herbicide 320 g/ha
Summary of the method: as §3

windgrass [19] = test: Test Example 4: herbicidal effect by soil treatment (Table 19, symbol L); format: in vivo, windgrass (Apera spica-venti); conditions: amount of applied herbicide 320 g/ha
Summary of the method: as §1

blackgrass [20] = test: Test Example 5: herbicidal effect by foliage application, plastic box (Table 20, symbol J); format: in vivo, blackgrass (Alopecurus myosuroides); conditions: foliage application, AAH 320 g/ha, evaluated three weeks after application
Summary of the method: as §2

Japanese bulrush = test: Test Example 1: herbicidal activity, application before weed generation under submerged conditions (Table 16, symbol B); format: in vivo, Japanese bulrush (Schoenoplectus juncoides); conditions: amount of applied herbicide 320 g/ha
Summary of the method: as §4

chickweed [21] = test: Test Example 5: herbicidal effect by foliage application, plastic box (Table 20, symbol P); format: in vivo, common chickweed (Stellaria media); conditions: foliage application, AAH 320 g/ha, evaluated three weeks after application
Summary of the method: as §2

redroot pigweed [22] = test: Test Example 5: herbicidal effect by foliage application, plastic box (Table 20, symbol N); format: in vivo, redroot pigweed (Amaranthus retroflexus); conditions: foliage application, AAH 320 g/ha, evaluated three weeks after application
Summary of the method: as §2

velvetleaf [23] = test: Test Example 4: herbicidal effect by soil treatment (Table 19, symbol M); format: in vivo, velvetleaf (Abutilon theophrasti); conditions: amount of applied herbicide 320 g/ha
Summary of the method: as §1

rice flat sedge = test: Test Example 3: herbicidal effect by foliage application, Wagner pot (Table 18, symbol E); format: in vivo, rice flat sedge (Cyperus iria); conditions: amount of applied herbicide 320 g/ha
Summary of the method: as §3

persian speedwell [24] = test: Test Example 5: herbicidal effect by foliage application, plastic box (Table 20, symbol R); format: in vivo, Persian speedwell (Veronica persica); conditions: foliage application, AAH 320 g/ha, evaluated three weeks after application
Summary of the method: as §2

southern crabgrass [25] = test: Test Example 5: herbicidal effect by foliage application, plastic box (Table 20, symbol F); format: in vivo, southern crabgrass (Digitaria ciliaris); conditions: foliage application, AAH 320 g/ha, evaluated three weeks after application
Summary of the method: as §2

Row | SMILES | herbicidal effect, K: Italian ryegrass (Italian ryegrass [1]) | O: lambsquarters, herbicidal effect (criteria 0-5) (lambsquarters [2]) | M: velvetleaf, herbicidal effect (criteria 0-5) (velvetleaf [3]) | herbicidal effect, I: wild oat (wild oat [4]) | herbicidal effect on H: barnyard grass (barnyard grass [5]) | herbicidal effect, R: persian speedwell (persian speedwell [6]) | herbicidal effect, G: green foxtail (green foxtail [7]) | herbicidal effect, N: redroot pigweed (redroot pigweed [8]) | herbicidal effect, F: southern crabgrass (southern crabgrass [9]) | herbicidal effect, J: blackgrass (blackgrass [10]) | herbicidal effect, H: barnyard grass (barnyard grass [11]) | herbicidal effect, P: chickweed (chickweed [12]) | herbicidal effect, O: lambsquarters (lambsquarters [13]) | Herbicidal effect, A: late watergrass (late watergrass) | G: green foxtail, herbicidal effect (criteria 0-5) (green foxtail [14]) | K: Italian ryegrass, herbicidal effect (criteria 0-5) (Italian ryegrass [15]) | H: barnyard grass, herbicidal effect (criteria 0-5) (barnyard grass [16]) | I: wild oat, herbicidal effect (criteria 0-5) (wild oat [17]) | L: windgrass, herbicidal effect (criteria 0-5) (windgrass [18]) | Herbicidal effect, C: oval-leafed pondweed (oval-leafed pondweed) | also measured
1 | CSc1ccncc1-c1sc2ccc(F)cc2c1-c1c(O)c(C)nn(C)c1=O [2-389] | 3 (Herbicidal rate of 40% or more and less than 70%) | 5 (Herbicidal rate of 90% or more (almost completely withered)) | 5 (Herbicidal rate of 90% or more (almost completely withered)) | 1 (Herbicidal rate of 5% or more and less than 20%) | 5 (Herbicidal rate of 90% or more (almost completely withered)) | 5 (Herbicidal rate of 90% or more (almost completely withered)) | 3 (Herbicidal rate of 40% or more and less than 70%) | 5 (Herbicidal rate of 90% or more (almost completely withered)) | 1 (Herbicidal rate of 5% or more and less than 20%) | 0 (Herbicidal rate of 5% or less (almost no effect)) | 3 (Herbicidal rate of 40% or more and less than 70%) | 4 (Herbicidal rate of 70% or more and less than 90%) | 5 (Herbicidal rate of 90% or more (almost completely withered)) | 3 (Herbicidal rate of 40% or more and less than 70%) | 5 (Herbicidal rate of 90% or more (almost completely withered)) | 4 (Herbicidal rate of 70% or more and less than 90%) | 5 (Herbicidal rate of 90% or more (almost completely withered)) | 4 (Herbicidal rate of 70% or more and less than 90%) | 4 (Herbicidal rate of 70% or more and less than 90%) | 0 (Herbicidal rate of 5% or less (almost no effect)) | herbicidal effect on D: Chinese sprangletop (Chinese sprangletop): 3 (Herbicidal rate of 40% or more and less than 70%); herbicidal effect, L: windgrass (windgrass [19]): 1 (Herbicidal rate of 5% or more and less than 20%); J: blackgrass, herbicidal effect (criteria 0-5) (blackgrass [20]): 3 (Herbicidal rate of 40% or more and less than 70%); Herbicidal effect, B: Japanese bulrush (Japanese bulrush): 0 (Herbicidal rate of 5% or less (almost no effect)); P: chickweed, herbicidal effect (criteria 0-5) (chickweed [21]): 5 (Herbicidal rate of 90% or more (almost completely withered)); N: redroot pigweed, herbicidal effect (criteria 0-5) (redroot pigweed [22]): 5 (Herbicidal rate of 90% or more (almost completely withered)); herbicidal effect, M: velvetleaf (velvetleaf [23]): 3 (Herbicidal rate of 40% or more and less than 70%); herbicidal effect on E: rice flat sedge (rice flat sedge): 5 (Herbicidal rate of 90% or more (almost completely withered)); R: persian speedwell, herbicidal effect (criteria 0-5) (persian speedwell [24]): 5 (Herbicidal rate of 90% or more (almost completely withered)); F: southern crabgrass, herbicidal effect (criteria 0-5) (southern crabgrass [25]): 5 (Herbicidal rate of 90% or more (almost completely withered))
2 | Cc1nn(C)c(=O)c(-c2c(-c3ccc(Cl)s3)sc3ccc(F)cc23)c1O [2-390] | 5 (Herbicidal rate of 90% or more (almost completely withered)) | 5 (Herbicidal rate of 90% or more (almost completely withered)) | 5 (Herbicidal rate of 90% or more (almost completely withered)) | 1 (Herbicidal rate of 5% or more and less than 20%) | 5 (Herbicidal rate of 90% or more (almost completely withered)) | 5 (Herbicidal rate of 90% or more (almost completely withered)) | 5 (Herbicidal rate of 90% or more (almost completely withered)) | 5 (Herbicidal rate of 90% or more (almost completely withered)) | 4 (Herbicidal rate of 70% or more and less than 90%) | 5 (Herbicidal rate of 90% or more (almost completely withered)) | 5 (Herbicidal rate of 90% or more (almost completely withered)) | 4 (Herbicidal rate of 70% or more and less than 90%) | 4 (Herbicidal rate of 70% or more and less than 90%) | 2 (Herbicidal rate of 20% or more and less than 40%) | 5 (Herbicidal rate of 90% or more (almost completely withered)) | 5 (Herbicidal rate of 90% or more (almost completely withered)) | 4 (Herbicidal rate of 70% or more and less than 90%) | 4 (Herbicidal rate of 70% or more and less than 90%) | 5 (Herbicidal rate of 90% or more (almost completely withered)) | 0 (Herbicidal rate of 5% or less (almost no effect)) | herbicidal effect on D: Chinese sprangletop (Chinese sprangletop): 3 (Herbicidal rate of 40% or more and less than 70%); herbicidal effect, L: windgrass (windgrass [19]): 4 (Herbicidal rate of 70% or more and less than 90%); J: blackgrass, herbicidal effect (criteria 0-5) (blackgrass [20]): 4 (Herbicidal rate of 70% or more and less than 90%); Herbicidal effect, B: Japanese bulrush (Japanese bulrush): 0 (Herbicidal rate of 5% or less (almost no effect)); P: chickweed, herbicidal effect (criteria 0-5) (chickweed [21]): 5 (Herbicidal rate of 90% or more (almost completely withered)); N: redroot pigweed, herbicidal effect (criteria 0-5) (redroot pigweed [22]): 5 (Herbicidal rate of 90% or more (almost completely withered)); herbicidal effect, M: velvetleaf (velvetleaf [23]): 3 (Herbicidal rate of 40% or more and less than 70%); herbicidal effect on E: rice flat sedge (rice flat sedge): 5 (Herbicidal rate of 90% or more (almost completely withered)); R: persian speedwell, herbicidal effect (criteria 0-5) (persian speedwell [24]): 5 (Herbicidal rate of 90% or more (almost completely withered)); F: southern crabgrass, herbicidal effect (criteria 0-5) (southern crabgrass [25]): 5 (Herbicidal rate of 90% or more (almost completely withered))
